In US20200345725A1, “Methods and Compositions for Treating Cancer” (Omeros Corporation, priority 2019, published 2020):

What was measured:
Type in all cases: cell-based
[1] = biological target: T1, GPR174 (Homo sapiens, UniProt Q9BXC1); assay: GPR174 signaling assays with adenosine receptor inhibitors (data not shown); parameters: host or cells: HEK293 or CHO cell lines (ATCC)
Excerpt: It should be noted that the A2aR inhibitors tested belong to four distinct chemical classes and that none of them affects GPR174 signaling when tested in signaling assays (data not shown).
Target sequence in this assay (Q9BXC1 whole entry, species assumed): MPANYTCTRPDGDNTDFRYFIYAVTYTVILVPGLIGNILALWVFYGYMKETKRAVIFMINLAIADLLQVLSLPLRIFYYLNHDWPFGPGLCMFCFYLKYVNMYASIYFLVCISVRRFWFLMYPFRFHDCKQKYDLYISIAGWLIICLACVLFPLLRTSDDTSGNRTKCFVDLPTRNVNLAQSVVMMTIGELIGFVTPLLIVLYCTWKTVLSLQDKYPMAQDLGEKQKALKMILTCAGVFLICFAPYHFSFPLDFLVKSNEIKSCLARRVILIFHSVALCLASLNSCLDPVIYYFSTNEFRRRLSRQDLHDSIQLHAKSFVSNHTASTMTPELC

[2] = tested on: CHRM1; assay: CRA against CHRM1
Excerpt: (§1) The inventors used a CRA similar to that described in U.S. Pat. No. 7,309,576 and O'Dowd et al., J. Biomol. Screen. 12:175-85, 2007 to identify compounds that are capable of interacting with GPR174 using a library of approximately 370,000 chemical entities. Briefly described, the CRA assay described in U.S. Pat. No. 7,309,576 involves artificially inserting a NLS into the dopamine D1 receptor (DRD1), which allows the receptor to traffic from the cell membrane to the cell interior, and that the binding of antagonists to the receptor retained the receptor at the cell surface, while removal of the ligand allowed the receptor to continue to internalize from the cell surface. Both antagonists and agonists that selectively bound the receptor retained the receptor on the plasma membrane. GPR174 constructs were generated for use in a CRA-based compound screening assay. From this screen, the inventors initially identified compounds of formula I-VI, as described herein and included in Table 1.
The inventors also sought to validate that the compounds identified using the CRA are modulatory compounds. To this end, the above-described CRA was used to screen a library for compounds that interact with three control non-orphan receptors, and the results of this screen were compared to the results of screening the same library for compound that were identified using a Fluorometric Imaging Plate Reader (FLIPR) assay, a conventional technique commonly used to identify compounds interacting with non-orphan GPCRs signaling through Ca^++. Three non-orphan GPCRs—Muscarinic acetylcholine receptor M1 (CHRM1), Adrenergic receptor alpha 1a (ADRA1a), and Neuropeptide S receptor (NPSR)—were screened against a 10,000-compound GPCR-focused library. Thirty interacting compound “hits” were identified using the CRA, and eighty-one hits were identified using the FLIPR for the CHRM1 receptor; 9 CRA hits and 29 FLIPR hits for the NPS receptor were identified; and 110 CRA hits and 110 FLIPR hits for ADRA1a.
In addition, the CRA can also provide the relative potencies of compounds against the target receptor.

[3] = biological target: T1, GPR174; assay: CRE-Luc reporter Gs signaling assay with GPR174; parameters: host or cells: HEK293 or CHO cell lines (ATCC); conditions: for Human GPR174 CRE Activity: nature of the compound (IA, antagonist, NM): pCRE-Luc reporter
Target sequence in this assay (Q9BXC1 whole entry): as the sequence (Q9BXC1 whole entry, species assumed) above

[4] = biological target: T1, GPR174; assay: GloSensor cAMP assay with GPR174, with or without agonist LysoPS; parameters: host or cells: HEK293 or CHO cell lines (ATCC)
Experimental: In order to confirm that GPR174 interacting compound 4 is an antagonist of GPR174-mediated Gs signaling, a GloSensor assay was carried out with increasing concentrations of compound 4 in the presence or absence of a fixed concentration (1 μM) of the GPR174 agonist LysoPS as follows.
The DNA/lipofectamine 2000 mix (3000 μL) was incubated at room temperature for 30 minutes and then added into a 10 cm culture dish (Corning, NY) containing 70-90% confluent cultured cells, typically HEK293 or CHO cell lines (ATCC, VA), in 15 mL of media. […] Media (26 mL) was added to the detached cells and 100 μL of transfected cells were transferred to each well on a 96-well plate. The cells were further incubated at 37° C. overnight. The following day, the media were removed and 100 μl of equilibration media (Promega) was added to each well to the manufacturer's directions. The cells were then incubated at room temperature for 2 hours and the cell plates were pre-read with a SpectraMax L (Molecular Devices, CA). After the pre-read, increasing concentrations of each compound in DMSO (1.0 μl) was added to the cells. The cell plates containing the compound were read immediately after the compound was added and at various times up to 30 minutes after the addition of the compound with a SpectraMax L (Molecular Devices, CA). Data were analyzed with either Excel (Microsoft, WA) or Prism 4.03 (GraphPad, CA).
Target sequence in this assay (Q9BXC1 whole entry, species assumed): as above

[5] = biological target: T1, GPR174; assay: Cellular redistribution assay (CRA) for GPR174
Excerpt: One method for identifying compounds capable of modulating a receptor is using a cellular redistribution assay (“CRA”). Exemplary CRA methods are found in U.S. Pat. No. 7,309,576 issued to O'Dowd et al. and in O'Dowd et al., J. Biomol. Screen. 12:175-85,2007. […] Incorporation of the NLS alters the cellular localization of the GPCR, such that the majority of the NLS-modified receptor is present in the cell interior. An NLS-modified GPCR, when interacting with a functionally active compound, is mostly localized on the cell surface. Thus, it becomes possible to identify receptor modulators without knowledge of the endogenous ligand or a surrogate ligand.
The inventors have identified a number of compounds that inhibit GPR174 using a CRA assay similar to that described in U.S. Pat. No. 7,309,576 and in O'Dowd et al., J. Biomol. Screen. 12:175-85, 2007. These compounds are described in detail below.
as §1
Target sequence in this assay (Q9BXC1 1-292 limits assumed): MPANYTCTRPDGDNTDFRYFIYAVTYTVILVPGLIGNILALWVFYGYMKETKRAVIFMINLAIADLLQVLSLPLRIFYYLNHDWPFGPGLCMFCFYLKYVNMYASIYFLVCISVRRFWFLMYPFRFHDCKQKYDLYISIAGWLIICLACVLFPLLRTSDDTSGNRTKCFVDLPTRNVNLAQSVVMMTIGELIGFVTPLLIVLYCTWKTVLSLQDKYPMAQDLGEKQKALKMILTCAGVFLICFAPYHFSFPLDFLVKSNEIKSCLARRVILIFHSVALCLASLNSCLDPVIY

[6] = biological target: T2, ADBR2 (Homo sapiens, UniProt P07550); assay: GloSensor cAMP assay with ADBR2
T2 construct: host or cells: HEK293 or CHO cell lines (ATCC)

[7] = biological target: T2, ADBR2; assay: CRE-Luc reporter assay with control receptor ADBR2
Experimental: The DNA/lipofectamine 2000 mix (3000 μL) was incubated at room temperature for 30 minutes and then added into a 10 cm culture dish (Corning, NY) containing 70-90% confluent cultured cells, (HEK293 or CHO cell lines (ATCC, VA)), in 15 mL of media. […] The cells were further incubated at 37° C. for various times. The media were removed and the cells lysed.
Compounds were tested in the reporter system with increasing concentrations of GPR174-interacting compounds.
The DNA/lipofectamine 2000 mix (3000 μL) was incubated at room temperature for 30 minutes and then added into a 10 cm culture dish (Corning, NY) containing 70-90% confluent cultured cells, typically HEK293 or CHO cell lines (ATCC, VA), in 15 mL of media. […] Media (26 mL) were added to the detached cells and 120 μL of transfected cells were transferred to each well on a 96-well plate. Increasing concentration of each compound in DMSO (1.2 μl) was added to the cells after plating into the 96-well plate. The cells were further incubated at 37° C. for various times. The media were removed, and the cells lysed.
ADBR2 is a GPCR, like GPR174, that activates the Gs signaling pathway.

[8] = biological target: T3, wild-type GPR174 (Homo sapiens, UniProt Q9BXC1); assay: GloSensor Gs signaling by phospholipids, HEK293 cells expressing wild-type GPR174; conditions: 10 nM to 10,000 nM
T3 construct: expressed in transfected cells; host or cells: HEK293
T3 sequence (Q9BXC1 whole entry): as the sequence (Q9BXC1 whole entry, species assumed) above
Experimental: (§2) Unilamellar liposomes of phosphatidylserine (PS) and other phospholipids were prepared by hydration in PBS and extrusion at 50-54° C. through a 0.1 micron filter using a mini-extruder (Avanti). Lysophosphatidylserine (Lyso-PS) is soluble.
(§3) HEK293 cells were grown in 6-well plates and transfected using Lipofectamine 2000 (Thermo Fisher Scientific) with 300 ng/well of cAMP biosensor expressing plasmid pGlo22F (Promega) and 2 ng of a plasmid expressing wild-type GPR174 or 2 ng of a plasmid expressing a GPR174 mutant with lowered basal activity, referred to as “GPR174-v38.”
5-6 hours after transfection, the cells were trypsinized and plated at a density of 5000 cells/well into 96-well plates and incubated overnight. The next day, the culture medium was replaced with 100 μL/well of serum free medium X-vivo15 (Lonza) with 2% GloSensor Assay reagent (Promega). The plates were incubated for 1 hour at room temperature and measured in a luminometer to obtain the pre-compound values. […] The plates were measured in a luminometer to obtain the post-compound addition measurement. The ratio of post-compound addition to pre-compound addition measurements (i.e., the extent of Glosensor signal induction by an agonist) was determined. […]

[9] = biological target: GPR174-v38 (Homo sapiens, UniProt Q9BXC1); assay: GloSensor Gs signaling by phospholipids, HEK293 cells expressing mutant GPR174-v38; conditions: 10 nM to 10,000 nM
Experimental: as §2, §3
5-6 hours after transfection, the cells were trypsinized and plated at a density of 5000 cells/well into 96-well plates and incubated overnight. The next day, the culture medium was replaced with 100 μL/well of serum free medium X-vivo15 (Lonza) with 2% GloSensor Assay reagent (Promega). The plates were incubated for 1 hour at room temperature and measured in a luminometer to obtain the pre-compound values. […] The plates were measured in a luminometer to obtain the post-compound addition measurement. The ratio of post-compound addition to pre-compound addition measurements (i.e., the extent of Glosensor signal induction by an agonist) was determined.

[10] = biological target: T4, A2bR (Homo sapiens, UniProt P29275); assay: Cre-luciferase reporter assay, HEK293 cells transfected with A2bR; conditions: overnight incubation; read-out: A2B (IC50 nM)
T4 construct: host or cells: HEK293
T4 sequence (P29275 1-332): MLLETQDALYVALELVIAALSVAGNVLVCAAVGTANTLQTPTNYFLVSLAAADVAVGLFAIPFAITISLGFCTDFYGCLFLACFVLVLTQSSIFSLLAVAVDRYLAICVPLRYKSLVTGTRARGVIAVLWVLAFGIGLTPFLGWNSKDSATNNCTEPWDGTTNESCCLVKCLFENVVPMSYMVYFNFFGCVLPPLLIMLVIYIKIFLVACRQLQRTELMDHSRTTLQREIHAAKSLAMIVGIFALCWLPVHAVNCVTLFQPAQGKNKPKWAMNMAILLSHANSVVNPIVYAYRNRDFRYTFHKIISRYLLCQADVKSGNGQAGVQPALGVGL

[11] = tested on: purified human T cells; assay: Suppression of cytokine production from purified human T cells by PS liposomes and NECA (MesoScale Discovery); conditions: purified human CD3+ T cells, 24 hours, PS liposomes 1 μM, NECA
Experimental: Purified human T cells (untouched total T cells, Astarte Biologies, Inc., CD3+ T cells in FIGS. 72A and 72B and CD8+ T cells in FIG. 72C) were stimulated in quadruplicate at 100,000 cells per well in 96-well flat bottom plates and X-vivo 15 media with the following reagents:
ImmunoCult™ Human CD3/CD28 T Cell Activator (StemCell) (1:50 dilution)
PS liposomes (1 μM) or media control
Adenosine receptor agonist (NECA, 0.1 μM or 0.05 μM) or media control
A combination of both reagents.
After 24 hours of culture (44 hours for the results shown in FIG. 72C), culture media was analyzed for cytokines (MesoScale Discovery).

For `CCCn1c(=O)c2[nH]c(-c3ccc(OCC(=O)Nc4ccc(C#N)cc4)cc3)nc2n(CCC)c1=O` [MRS-1754], the “effect on GPR174 signaling” value [1] was “did not affect GPR174 signaling”.
For `CCCC(=O)c1ccc(N2CCN(S(=O)(=O)c3ccc(C)cc3)CC2)c(F)c1` [compound 4], the “activity against CHRM1 in the CRA (FIG. 5B)” value [2] was “do not show any activity”, the “Gs pathway in the presence of GPR174 (CRE-Luc reporter)” value ([3]; increasing concentrations of compound) was “did not modulate” and the “Human GPR174 CRE Activity: nature of the compound (IA, antagonist, NM)” value [3] was “GPR174 antagonist”. For the same molecule, the “Human GPR174 CRE Activity: nature of the compound (IA, antagonist, NM)” value ([3]; listed as Compound 4) was “GPR174 antagonist”, the “competition with the GPR174 agonist LysoPS (GloSensor, FIG. 21A)” value ([4]; LysoPS fixed at 1 μM) was “does compete” and the “Gs pathway in the presence of GPR174 (GloSensor, FIG. 21A)” value ([4]; compound alone) was “does not modulate”. For the same molecule, the “dose-response curve against GPR174 in the CRA (FIG. 5A)” value [5] was “show a dose-response curve”, the “Gs signaling in the presence of ADBR (GloSensor, FIG. 21B)” value [6] was “neither compound 4 nor LysoPS modulate Gs signaling” and the “Gs pathway in the presence of ADBR2 (CRE-Luc reporter)” value [7] was “did not modulate”.
lysophosphatidylserine [LysoPS] was tested, and the “GPR174 Gs signaling, wild-type GPR174 (FIG. 45A)” value [8] was “stimulate GPR174 Gs signaling in a concentration-dependent manner”, the “Gs signaling in the presence of ADBR (GloSensor, FIG. 21B)” value [6] was “neither compound 4 nor LysoPS modulate Gs signaling” and the “GPR174 Gs signaling, mutant GPR174-v38 (FIG. 45B)” value [9] was “stimulate GPR174 Gs signaling in a concentration-dependent manner”.
Work on `Nc1nc(-n2cccn2)nc(-n2cccn2)c1Br` [PBF-509] yielded an IC50 [10] of 680 nM.
For `CCNC(=O)[C@H]1O[C@@H](n2cnc3c(N)ncnc32)[C@H](O)[C@@H]1O` [NECA], the “IL-2 FC vs Media” value ([11]; FIG. 72A) was 0.42 fold change and the “IFN-γ FC vs Media” value ([11]; FIG. 72B) was 0.31 fold change.
